From patent publication US12637478B2, “Compound, preparation method thereof, and antibiotic composition comprising same” (priority 2020, dated 2026)
≈ marks a conversion by molar mass, not a printed value. Like-named read-outs stand apart in the source and are kept apart here.

Key:
[1] = tested on: S. epidermis^MR; test: MIC by broth microdilution (aerobic pathogens), test strain 6; format: cell-based, Methicillin resistant Staphylococcus epidermidis; settings: Staphylococcus epidermidis
In short: (§1)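 Susceptibility testing follows CLSI M7-A5 broth microdilution. Endpoint: lowest drug level cutting bacterial growth 90% against drug-free controls.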

[2] = tested on: E. faecalis^LinR; test: MIC by broth microdilution (aerobic pathogens), test strain 9; format: cell-based, Linezolid resistant Enterococcus faecalis; settings: Enterococcus faecalis
In short: as §1

[3] = tested on: E. faecalis; test: MIC by broth microdilution (aerobic pathogens), test strain 7; format: cell-based; settings: Enterococcus faecalis; test strain 7, E. faecalis; read-out: MIC
In short: as §1

[4] = tested on: S. aureus^MS; test: MIC by broth microdilution (aerobic pathogens), test strain 2; format: cell-based; settings: Staphylococcus aureus; test strain 2, S. aureus^MS; read-out: MIC
In short: as §1

[5] = tested on: C. difficile 161; test: MIC by agar dilution against Clostridioides difficile, test strain 16; format: cell-based; settings: test strain 16, C. difficile 161, anaerobic, agar dilution, read-out: MIC
[6] = tested on: C. difficile 174; test: MIC by agar dilution against Clostridioides difficile, test strain 18; format: cell-based; settings: test strain 18, C. difficile 174, anaerobic, agar dilution, read-out: MIC
[7] = tested on: E. faecium^LinR; test: MIC by broth microdilution (aerobic pathogens), test strain 12; format: cell-based, Linezolid resistant Enterococcus faecium; settings: Enterococcus faecium; test strain 12, E. faecium^LinR (linezolid resistant); read-out: MIC
In short: as §1

[8] = tested on: E. faecalis^VanA; test: MIC by broth microdilution (aerobic pathogens), test strain 8; format: cell-based, Vancomycin resistant Enterococcus faecalis; settings: Enterococcus faecalis; test strain 8, E. faecalis^VanA (vancomycin resistant); read-out: MIC
In short: as §1

[9] = tested on: S. aureus^VR; test: MIC by broth microdilution (aerobic pathogens), test strain 4; format: cell-based, Vancomycin resistant Staphylococcus aureus; settings: Staphylococcus aureus; test strain 4, S. aureus^VR (vancomycin resistant); read-out: MIC
In short: as §1

[10] = tested on: C. difficile 173; test: MIC by agar dilution against Clostridioides difficile, test strain 17; format: cell-based; settings: test strain 17, C. difficile 173, anaerobic, agar dilution, read-out: MIC
[11] = tested on: S. aureus^MS; test: MIC by broth microdilution (aerobic pathogens), test strain 1; format: cell-based; settings: Staphylococcus aureus; test strain 1, S. aureus^MS; read-out: MIC
In short: as §1

[12] = tested on: M. tuberculosis; test: MIC by resazurin (REMA) assay against Mycobacterium, test strain 20; format: cell-based
Procedure: (§2) In order to test the antibacterial activity, the medium of Mycobacterium cultured to late log phase was diluted so as to be 4.0×10^5 cells/well in Middlebrook 7H10 agar medium (Difco) supplemented with 10% oleic acid, albumin, dextrose, catalase (OADC, Becton Dickinson) and 0.05% Tween 80 (Sigma Aldrich) and was dispensed into a 96-well plate. The compounds were treated so that DMSO was 1%, and after 3 days, a 0.025% resazurin (REMA) solution was dispensed, and the growth of the bacteria was confirmed after culturing. The MIC value was measured for the antibacterial activity through resazurin (excitation 530 nm, emission 590 nm).

[13] = tested on: S. epidermis; test: MIC by broth microdilution (aerobic pathogens), test strain 5; format: cell-based; settings: Staphylococcus epidermidis; test strain 5, S. epidermis; read-out: MIC
In short: as §1

[14] = tested on: E. faecium; test: MIC by broth microdilution (aerobic pathogens), test strain 10; format: cell-based; settings: Enterococcus faecium; test strain 10, E. faecium; read-out: MIC
In short: as §1

[15] = tested on: M. abscessus; test: MIC by resazurin (REMA) assay against Mycobacterium, test strain 23; format: cell-based; settings: Mycobacteroides abscessus; test strain 23, M. abscessus, resazurin; read-out: MIC
Procedure: as §2

[16] = tested on: M. intracelluare; test: MIC by resazurin (REMA) assay against Mycobacterium, test strain 22; format: cell-based; settings: Mycobacterium intracellulare; test strain 22, M. intracelluare, resazurin; read-out: MIC
Procedure: as §2

[17] = tested on: C. difficile 152; test: MIC by agar dilution against Clostridioides difficile, test strain 14; format: cell-based; settings: test strain 14, C. difficile 152, anaerobic, agar dilution, read-out: MIC
[18] = tested on: C. difficile 9689; test: MIC by agar dilution against Clostridioides difficile, test strain 13; format: cell-based; settings: test strain 13, C. difficile 9689, anaerobic, agar dilution, read-out: MIC
[19] = tested on: S. aureus^MR; test: MIC by broth microdilution (aerobic pathogens), test strain 3; format: cell-based, Methicillin resistant Staphylococcus aureus; settings: Staphylococcus aureus; test strain 3, S. aureus^MR (methicillin resistant); read-out: MIC
Procedure: The antibacterial activity of the compounds of Examples 1 to 48 of the present invention against aerobic pathogens were evaluated by measuring the minimum concentration of the antibiotic capable of inhibiting bacterial growth by 90% compared to the growth of the non-drug treated control group. MIC was measured by the broth microdilution method based on CLSI standards [Reference: Clinical and Laboratory Standards Institute Document. (2000) Methods for Dilution Antimicrobial Susceptibility Test for Bacteria that Grow Aerobically-Fifth Edition: M7-A5. CLSI, Villanova, PA].
All 13 strains such as methicillin susceptible Staphylococcus aureus (MSSA), methicillin resistant Staphylococcus aureus (MRSA), Vancomycin resistant Staphylococcus aureus (VRSA), Staphylococcus epidermidis, methicillin resistant Staphylococcus epidermidis, Enterococcus faecalis, Vancomycin resistant Enterococcus faecalis, Enterococcus faecium, Vancomycin resistant Enterococcus faecium were used.

[20] = tested on: C. difficile 159; test: MIC by agar dilution against Clostridioides difficile, test strain 15; format: cell-based; settings: test strain 15, C. difficile 159, anaerobic, agar dilution, read-out: MIC
[21] = tested on: E. faecium^VRE; test: MIC by broth microdilution (aerobic pathogens), test strain 11; format: cell-based, Vancomycin resistant Enterococcus faecium; settings: Enterococcus faecium; test strain 11, E. faecium^VRE (vancomycin resistant); read-out: MIC
In short: as §1

[22] = tested on: C. difficile 181; test: MIC by agar dilution against Clostridioides difficile, test strain 19; format: cell-based; settings: test strain 19, C. difficile 181, anaerobic, agar dilution, read-out: MIC
[23] = tested on: M. avium; test: MIC by resazurin (REMA) assay against Mycobacterium, test strain 21; format: cell-based; settings: test strain 21, M. avium, resazurin, read-out: MIC
Procedure: as §2

[24] = test strain 6, S. epidermis^MR (methicillin resistant), read-out: MIC
[25] = test strain 9, E. faecalis^LinR (linezolid resistant), read-out: MIC

| Compound | MIC [1, 24] | MIC [2, 25] | MIC [3] | MIC [4] | MIC [5] | MIC [6] | MIC [7] | MIC [8] | MIC [9] | MIC [10] | MIC [11] | MIC [12] | MIC [13] | MIC [14] | MIC [17] | MIC [19] | MIC [20] | MIC [21] | MIC [22] | also measured |
| --- | --- | --- | --- | --- | --- | --- | --- | --- | --- | --- | --- | --- | --- | --- | --- | --- | --- | --- | --- | --- |
| C/C=C(\NC(=O)c1csc(-c2csc(-c3ccc4c(n3)-c3csc(n3)[C@H]([C@@H](C)O)NC(=O)c3csc(n3)[C@H](C(C)C)NC(=O)c3csc(n3)/C(=C/C)NC(=O)[C@H]([C@@H](C)O)NC(=O)c3csc-4n3)n2)n1)C(=O)NCCN1CCOCC1 [Compound 1] | 0.125 µg/mL (≈ 0.104 µM) | 0.125 µg/mL (≈ 0.104 µM) | 0.25 µg/mL (≈ 0.208 µM) | 0.125 µg/mL (≈ 0.104 µM) | 0.5 µg/mL (≈ 0.417 µM) | 0.5 µg/mL (≈ 0.417 µM) | 1 µg/mL (≈ 0.834 µM) | 0.125 µg/mL (≈ 0.104 µM) | 1 µg/mL (≈ 0.834 µM) | 1 µg/mL (≈ 0.834 µM) | 0.125 µg/mL (≈ 0.104 µM) | 0.076 µg/mL (≈ 0.0634 µM) | 0.125 µg/mL (≈ 0.104 µM) | 0.5 µg/mL (≈ 0.417 µM) |  |  |  |  |  |  |
| C/C=C1\NC(=O)[C@H]([C@@H](C)O)NC(=O)c2csc(n2)-c2ccc(-c3nc(-c4nc(C(=O)NC5(C(=O)NCCCN6CCOCC6)CC5)cs4)cs3)nc2-c2csc(n2)[C@H]([C@@H](C)O)NC(=O)c2csc(n2)[C@H](C(C)C)NC(=O)c2csc1n2 [Compound 7] |  |  | 0.25 µg/mL (≈ 0.206 µM) | 0.25 µg/mL (≈ 0.206 µM) | 0.5 µg/mL (≈ 0.412 µM) | 0.06 µg/mL (≈ 0.0494 µM) | 0.5 µg/mL (≈ 0.412 µM) | 0.25 µg/mL (≈ 0.206 µM) | 1 µg/mL (≈ 0.824 µM) | 0.06 µg/mL (≈ 0.0494 µM) | 0.25 µg/mL (≈ 0.206 µM) |  | 0.0625 µg/mL (≈ 0.0515 µM) | 0.25 µg/mL (≈ 0.206 µM) | 0.06 µg/mL (≈ 0.0494 µM) | 0.5 µg/mL (≈ 0.412 µM) | 0.25 µg/mL (≈ 0.206 µM) | 1 µg/mL (≈ 0.824 µM) | 0.25 µg/mL (≈ 0.206 µM) | MIC [15]: 0.322 µg/mL (≈ 0.265 µM); MIC [16]: 0.107 µg/mL (≈ 0.0882 µM); MIC [1]: 0.125 µg/mL (≈ 0.103 µM); MIC [2]: 0.125 µg/mL (≈ 0.103 µM); MIC [18]: 0.25 µg/mL (≈ 0.206 µM); MIC [23]: 0.083 µg/mL (≈ 0.0684 µM) |
| C/C=C(\NC(=O)c1csc(-c2csc(-c3ccc4c(n3)-c3csc(n3)[C@H]([C@@H](C)O)NC(=O)c3csc(n3)[C@H](C(C)C)NC(=O)c3csc(n3)/C(=C/C)NC(=O)[C@H]([C@@H](C)O)NC(=O)c3csc-4n3)n2)n1)C(=O)NCCn1c([N+](=O)[O-])cnc1C [Compound 3] | 0.125 µg/mL (≈ 0.101 µM) | 0.125 µg/mL (≈ 0.101 µM) | 0.0625 µg/mL (≈ 0.0504 µM) | < 0.0625 µg/mL | 0.25 µg/mL (≈ 0.202 µM) | 0.25 µg/mL (≈ 0.202 µM) | 0.25 µg/mL (≈ 0.202 µM) | 0.125 µg/mL (≈ 0.101 µM) | 0.25 µg/mL (≈ 0.202 µM) | 0.5 µg/mL (≈ 0.403 µM) | 0.0625 µg/mL (≈ 0.0504 µM) | 0.1 µg/mL (≈ 0.0807 µM) | 0.25 µg/mL (≈ 0.202 µM) | 0.125 µg/mL (≈ 0.101 µM) | 1 µg/mL (≈ 0.807 µM) | 1 µg/mL (≈ 0.807 µM) | 1 µg/mL (≈ 0.807 µM) | 0.25 µg/mL (≈ 0.202 µM) | 0.5 µg/mL (≈ 0.403 µM) |  |
